Experimental data as given in patent publication US7880007B2, “Bicyclic substituted phenyl piperidine modulators of muscarinic receptors” (Vertex Pharmaceuticals Incorporated, priority 2004, dated 2011).

Legend:
Assay type in all cases: cell-based
[1] = target: T1, M1 muscarinic receptor (Homo sapiens, UniProt P11229); test: Functional mobilization of intracellular calcium (FLIPR), M1-CHO cells; details: for M1 Activity: M1-CHO cells, calcium mobilization (FLIPR)
T1 construct: expressed in transfected cells; host or cells: CHO (M1-CHO)
T1 sequence (P11229 1-460): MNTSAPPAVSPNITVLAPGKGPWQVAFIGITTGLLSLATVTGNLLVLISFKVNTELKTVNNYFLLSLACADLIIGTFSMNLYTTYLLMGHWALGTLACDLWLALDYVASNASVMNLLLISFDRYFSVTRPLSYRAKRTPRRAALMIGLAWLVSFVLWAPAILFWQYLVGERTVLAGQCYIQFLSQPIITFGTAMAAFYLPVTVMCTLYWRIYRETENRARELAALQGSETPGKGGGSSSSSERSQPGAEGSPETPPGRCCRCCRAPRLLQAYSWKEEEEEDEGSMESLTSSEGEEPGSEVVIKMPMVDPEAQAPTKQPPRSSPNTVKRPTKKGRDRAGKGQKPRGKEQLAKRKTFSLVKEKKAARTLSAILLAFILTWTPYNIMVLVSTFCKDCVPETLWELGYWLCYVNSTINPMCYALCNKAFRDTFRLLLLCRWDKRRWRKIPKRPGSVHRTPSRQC
How it was run: (§1)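 Calcium mobilisation read by FLIPR over 60 s (ex 488/em 540 nm) in recombinant muscarinic CHO lines loaded with calcium dye plus 1 mM probenecid. Compounds tested as agonists alone, or as inhibitors against EC80 carbachol after 15 min pre-incubation or co-addition; 0.5% DMSO; efficacy scaled to carbachol maximal response.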

[2] = target: T2, M4 muscarinic receptor (Homo sapiens, UniProt P08173); test: Functional mobilization of intracellular calcium (FLIPR), M4-CHO cells; details: for M4 Activity: M4-CHO cells, calcium mobilization (FLIPR)
T2 construct: expressed in transfected cells; host or cells: CHO (M4-CHO)
T2 sequence (P08173 1-479): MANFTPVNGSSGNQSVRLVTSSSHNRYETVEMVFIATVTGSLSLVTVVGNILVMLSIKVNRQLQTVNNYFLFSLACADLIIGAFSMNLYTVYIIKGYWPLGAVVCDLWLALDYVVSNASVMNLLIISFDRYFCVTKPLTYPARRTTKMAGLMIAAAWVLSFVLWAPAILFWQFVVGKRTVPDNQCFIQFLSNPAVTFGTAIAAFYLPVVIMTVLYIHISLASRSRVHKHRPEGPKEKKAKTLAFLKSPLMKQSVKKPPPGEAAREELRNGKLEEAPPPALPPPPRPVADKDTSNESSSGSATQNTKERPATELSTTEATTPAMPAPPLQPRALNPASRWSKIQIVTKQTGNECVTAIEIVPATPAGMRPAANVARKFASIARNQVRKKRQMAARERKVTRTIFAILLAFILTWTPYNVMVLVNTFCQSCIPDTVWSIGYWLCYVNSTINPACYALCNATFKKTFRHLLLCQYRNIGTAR
How it was run: as §1

[3] = target: T3, M3 muscarinic receptor (Homo sapiens, UniProt P20309); test: Functional mobilization of intracellular calcium (FLIPR), M3-CHO cells; details: for M3 Activity: M3-CHO cells, calcium mobilization (FLIPR)
T3 construct: expressed in transfected cells; host or cells: CHO (M3-CHO)
How it was run: as §1

[4] = target: T4, M2 muscarinic receptor (Homo sapiens, UniProt P08172); test: Functional mobilization of intracellular calcium (FLIPR), M2-CHO cells; details: for M2 Activity: M2-CHO cells, calcium mobilization (FLIPR)
T4 construct: expressed in transfected cells; host or cells: CHO (M2-CHO)
T4 sequence (P08172 1-466): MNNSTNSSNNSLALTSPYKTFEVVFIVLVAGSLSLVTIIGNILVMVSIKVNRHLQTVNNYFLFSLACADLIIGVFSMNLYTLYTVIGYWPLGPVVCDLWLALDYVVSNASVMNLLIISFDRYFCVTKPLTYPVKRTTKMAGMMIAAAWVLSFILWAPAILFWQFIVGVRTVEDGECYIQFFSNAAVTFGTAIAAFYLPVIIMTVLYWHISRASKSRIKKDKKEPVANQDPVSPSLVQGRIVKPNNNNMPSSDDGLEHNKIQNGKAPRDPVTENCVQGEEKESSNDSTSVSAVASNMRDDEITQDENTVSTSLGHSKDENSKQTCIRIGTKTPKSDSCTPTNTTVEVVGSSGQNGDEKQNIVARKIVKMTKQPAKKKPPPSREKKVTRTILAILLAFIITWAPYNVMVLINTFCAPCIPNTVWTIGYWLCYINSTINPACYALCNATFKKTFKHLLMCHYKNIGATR
How it was run: as §1

[5] = 100% efficacy = maximum response obtained with the Carbachol control

T3 sequence (P20309 whole entry): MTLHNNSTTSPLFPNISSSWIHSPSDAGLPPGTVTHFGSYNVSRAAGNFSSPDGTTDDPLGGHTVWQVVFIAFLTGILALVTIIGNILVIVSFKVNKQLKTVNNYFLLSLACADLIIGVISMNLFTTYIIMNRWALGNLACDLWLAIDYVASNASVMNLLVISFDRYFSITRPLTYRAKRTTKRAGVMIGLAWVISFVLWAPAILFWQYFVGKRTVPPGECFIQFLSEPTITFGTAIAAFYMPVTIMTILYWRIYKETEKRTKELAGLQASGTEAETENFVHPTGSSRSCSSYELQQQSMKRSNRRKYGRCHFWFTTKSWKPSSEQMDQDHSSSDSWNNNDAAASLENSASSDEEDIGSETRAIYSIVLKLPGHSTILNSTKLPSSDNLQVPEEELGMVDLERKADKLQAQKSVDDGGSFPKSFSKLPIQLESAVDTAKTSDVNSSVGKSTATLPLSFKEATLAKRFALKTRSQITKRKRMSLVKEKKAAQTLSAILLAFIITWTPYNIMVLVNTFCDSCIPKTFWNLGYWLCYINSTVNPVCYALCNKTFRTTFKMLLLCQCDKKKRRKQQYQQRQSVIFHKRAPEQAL

Structure (SMILES) | Emax [1, 5] | M1 Activity [1] | Emax [2, 5] | M4 Activity [2] | M3 Activity [3] | Emax [4, 5] | M2 Activity [4] | Emax [3, 5] | M1 Efficacy [1, 5] | M4 Efficacy [2, 5] | M3 Efficacy [3, 5] | M2 Efficacy [4, 5]
Cc1ccc(C)c(C2CCN(CC3CC4C=CC3C4)CC2)c1 (stereo not shown) [Compound 329] | 25 to 100% | + (activity was measured to be greater than 5.0 μM) | 25 to 100% | ++ (activity was measured to be from 1.0 μM to 5.0 μM) | + (activity was measured to be greater than 5.0 μM) | < 25% | + (activity was measured to be greater than 5.0 μM) | – | – | – | – | –
CCOC(=O)N1C2CCC1CC(N1CCC(c3cc(F)ccc3OC)CC1)C2 (stereo not shown) [Compound 330] | 25 to 100% | +++ (activity was measured to be less than 1.0 μM) | 25 to 100% | +++ (activity was measured to be less than 1.0 μM) | + (activity was measured to be greater than 5.0 μM) | 25 to 100% | +++ (activity was measured to be less than 1.0 μM) | < 25% | – | – | – | –
COc1ccc(Cl)cc1C1CCN(C2CCC3(CC2)OCCO3)CC1 [Compound 331, 4-(5-chloro-2-methoxyphenyl)-1-(1,4-dioxaspiro[4.5]decan-8-yl)piperidine] | 25 to 100% | + (activity was measured to be greater than 5.0 μM) | 25 to 100% | +++ (activity was measured to be less than 1.0 μM) | + (activity was measured to be greater than 5.0 μM) | < 25% | + (activity was measured to be greater than 5.0 μM) | < 25% | – | – | – | –
COc1ccc(-c2ccc(S(=O)(=O)N3CCCC3)cc2)cc1C1CCN(C2CCCCC2)CC1 [Compound 332] | 25 to 100% | + (activity was measured to be greater than 5.0 μM) | 25 to 100% | + (activity was measured to be greater than 5.0 μM) | + (activity was measured to be greater than 5.0 μM) | < 25% | + (activity was measured to be greater than 5.0 μM) | < 25% | – | – | – | –
Cc1c(C2CCN(C3CCOCC3)CC2)cccc1C(F)(F)F [Compound 333] | < 25% | + (activity was measured to be greater than 5.0 μM) | 25 to 100% | ++ (activity was measured to be from 1.0 μM to 5.0 μM) | + (activity was measured to be greater than 5.0 μM) | < 25% | + (activity was measured to be greater than 5.0 μM) | < 25% | – | – | – | –
CCOC(=O)N1C2CCC1CC(N1CCC(F)(c3cc(F)ccc3OC)CC1)C2 (stereo not shown) [Compound 334] | 25 to 100% | +++ (activity was measured to be less than 1.0 μM) | 25 to 100% | +++ (activity was measured to be less than 1.0 μM) | + (activity was measured to be greater than 5.0 μM) | < 25% | + (activity was measured to be greater than 5.0 μM) | < 25% | – | – | – | –
COc1ccc(Cl)cc1C1CCN(C2CCC(=NOc3ccccc3)CC2)CC1 (stereo not shown) [Compound 336] | – | ++ (activity was measured to be from 1.0 μM to 5.0 μM) | – | +++ (activity was measured to be less than 1.0 μM) | + (activity was measured to be greater than 5.0 μM) | – | + (activity was measured to be greater than 5.0 μM) | – | ++ (efficacy was calculated to be from 100% to 25%) | ++ (efficacy was calculated to be from 100% to 25%) | + (efficacy was calculated to be less than 25%) | + (efficacy was calculated to be less than 25%)
CCOC(=O)N1CCC(CN2CCC(c3cccc(C(F)(F)F)c3C)CC2)CC1 [Compound 337] | 25 to 100% | ++ (activity was measured to be from 1.0 μM to 5.0 μM) | 25 to 100% | +++ (activity was measured to be less than 1.0 μM) | + (activity was measured to be greater than 5.0 μM) | < 25% | + (activity was measured to be greater than 5.0 μM) | < 25% | – | – | – | –
COc1ccccc1C1CCN(C2CC(c3ccccc3)C(c3ccccc3)C2)CC1 (stereo not shown) [Compound 339] | 25 to 100% | + (activity was measured to be greater than 5.0 μM) | 25 to 100% | + (activity was measured to be greater than 5.0 μM) | + (activity was measured to be greater than 5.0 μM) | < 25% | + (activity was measured to be greater than 5.0 μM) | < 25% | – | – | – | –
COc1ccc(F)cc1C1(O)CCN(C[C@H]2C[C@H]3C=C[C@H]2C3)CC1 [Compound 340] | 25 to 100% | + (activity was measured to be greater than 5.0 μM) | 25 to 100% | +++ (activity was measured to be less than 1.0 μM) | + (activity was measured to be greater than 5.0 μM) | 25 to 100% | + (activity was measured to be greater than 5.0 μM) | < 25% | – | – | – | –
Cc1ccc(C)c(C2CCN(C3CC4CCC3C4)CC2)c1 (stereo not shown) [Compound 341] | < 25% | + (activity was measured to be greater than 5.0 μM) | 25 to 100% | ++ (activity was measured to be from 1.0 μM to 5.0 μM) | + (activity was measured to be greater than 5.0 μM) | < 25% | + (activity was measured to be greater than 5.0 μM) | – | – | – | – | –
COc1ccc(-c2ccc(C#N)cc2)cc1C1CCN(C2CCCCC2)CC1 [Compound 342] | 25 to 100% | + (activity was measured to be greater than 5.0 μM) | 25 to 100% | ++ (activity was measured to be from 1.0 μM to 5.0 μM) | + (activity was measured to be greater than 5.0 μM) | < 25% | + (activity was measured to be greater than 5.0 μM) | < 25% | – | – | – | –
